Experimental data reported in DBAASP.
Converted amounts (≈) assume the structure as drawn.

Experiments:
Assay in all cases: ≥ marks a high value that may be exact or a test limit, other limits are often not marked, values filed in µg/mL are converted to µM
[1] = test system: Enterococcus faecalis ATCC 19433
[2] = test system: Acinetobacter baumannii ATCC 19606
[3] = test system: Enterobacter cloacae ATCC 49141
Escherichia coli D21 = test system: Escherichia coli D21
[4] = test system: Pseudomonas aeruginosa ATCC 27853
[5] = test system: Escherichia coli ATCC 25922
[6] = test system: Staphylococcus aureus II ATCC 6538P
[7] = test system: Staphylococcus aureus FDA 209P
[8] = test system: Escherichia coli IFO 3972
Escherichia coli ER2566 = test system: Escherichia coli ER2566
[9] = test system: Pseudomonas aeruginosa ATCC 21625
[10] = test system: Pseudomonas aeruginosa ATCC 10419
[11] = test system: Staphylococcus aureus ATCC 25923
[12] = test system: Salmonella enterica subsp. enterica serovar Pullorum C79-13
Escherichia coli UB1005 = test system: Escherichia coli UB1005
[13] = test system: Pseudomonas aeruginosa ATCC 21630
[14] = test system: Enterococcus faecalis ATCC 29212
[15] = test system: Salmonella enterica subsp. enterica serovar Typhimurium ATCC 14028
[16] = test system: Salmonella enterica subsp. enterica serovar Typhimurium C77-31
Escherichia coli 44102 = test system: Escherichia coli 44102
[17] = test system: Bacillus subtilis ATCC 11060
[18] = test system: Staphylococcus epidermidis ATCC 12228
Escherichia coli K88 = test system: Escherichia coli K88
Escherichia coli 078 = test system: Escherichia coli 078
[19] = test system: Fusarium oxysporum DSM Z62306
[20] = test system: Botrytis cinerea DSM Z877
[21] = test system: Clavibacter michiganensis subsp. michiganensis DSM 46294
[22] = test system: Pectobacterium carotovorum subsp. carotovorum DSM 30168
[23] = test system: Pseudomonas corrugata DSM 7228
[24] = test system: Pseudomonas syringae pv. tomato DC3000
Alternaria alternata = test system: Alternaria alternata
Cladosporium herbarum = test system: Cladosporium herbarum
[25] = test system: Xanthomonas vesicatoria DSM 50861
Botrytis cinerea = test system: Botrytis cinerea
[26] = test system: Pseudomonas syringae pv. syringae DSM 10604
[27] = test system: Corynebacterium glutamicum ATCC 13032
[28] = test system: Staphylococcus aureus ATCC 9144
Escherichia coli HB101 = test system: Escherichia coli HB101

## CC(C)C[C@H](NC(=O)[C@H](Cc1cnc[nH]1)NC(=O)[C@H](Cc1cnc[nH]1)NC(=O)[C@H](CC(C)C)NC(=O)[C@H](CC(C)C)NC(=O)[C@H](Cc1cnc[nH]1)NC(=O)[C@H](Cc1cnc[nH]1)NC(=O)[C@H](CC(C)C)NC(=O)[C@H](CC(C)C)NC(=O)[C@H](Cc1cnc[nH]1)NC(=O)[C@H](Cc1cnc[nH]1)NC(=O)[C@H](CC(C)C)NC(=O)[C@H](C)NC(=O)[C@H](CC(=O)O)NC(=O)[C@@H](N)CC(=O)O)C(=O)O [DDALHHLLHHLLHHL]
[1]
  MIC: ≥ 100 µM
[2]
  MIC: > 100 µM
[3]
  MIC: ≥ 100 µM
Escherichia coli D21
  MIC: ≥ 100 µM
[4]
  MIC: 100 µM (≈ 182 µg/mL)
[5]
  MIC: > 100 µM
[6]
  MIC: ≥ 100 µM

## CC(C)C[C@H](NC(=O)[C@H](Cc1c[nH]c2ccccc12)NC(=O)[C@@H](NC(=O)[C@H](Cc1c[nH]c2ccccc12)NC(=O)[C@H](Cc1cnc[nH]1)NC(=O)[C@@H](N)Cc1c[nH]c2ccccc12)[C@@H](C)O)C(=O)O [WHWTWL]
[7]
  MIC: ≥ 500 µM
[8]
  MIC: ≥ 500 µM

## CC[C@H](C)[C@H](NC(=O)[C@H](CCCCN)NC(=O)[C@H](CCCCN)NC(=O)[C@H](CC(C)C)NC(=O)[C@H](CCCN=C(N)N)NC(=O)[C@H](Cc1c[nH]c2ccccc12)NC(=O)[C@H](CCCN=C(N)N)NC(=O)[C@@H](NC(=O)[C@H](CCCCN)NC(=O)[C@H](Cc1c[nH]c2ccccc12)NC(=O)[C@H](CCCN=C(N)N)NC(=O)[C@H](CC(C)C)NC(=O)[C@H](CCCN=C(N)N)NC(=O)[C@H](CCCN=C(N)N)NC(=O)[C@H](Cc1ccccc1)NC(=O)[C@@H](N)CCCN=C(N)N)[C@@H](C)O)C(N)=O [RFRRLRWKTRWRLKKI]
Escherichia coli ER2566
  MIC: 8 µM (≈ 18.4 µg/mL)
[9]
  MIC: ≥ 32 µM
[10]
  MIC: 16 µM (≈ 36.8 µg/mL)
[11]
  MIC: 32 µM (≈ 73.6 µg/mL)
[12]
  MIC: ≥ 128 µM
Escherichia coli UB1005
  MIC: 4 µM (≈ 9.2 µg/mL)
[13]
  MIC: 16 µM (≈ 36.8 µg/mL)
[14]
  MIC: 4 µM (≈ 9.2 µg/mL)
[15]
  MIC: 8 µM (≈ 18.4 µg/mL)
[16]
  MIC: 8 µM
Escherichia coli 44102
  MIC: 8 µM (≈ 18.4 µg/mL)
[17]
  MIC: 8 µM (≈ 18.4 µg/mL)
[4]
  MIC: > 128 µM
[18]
  MIC: 8 µM (≈ 18.4 µg/mL)
Escherichia coli K88
  MIC: 4 µM (≈ 9.2 µg/mL)
Escherichia coli 078
  MIC: 4 µM (≈ 9.2 µg/mL)

## CSCC[C@H](NC(=O)[C@@H](NC(=O)[C@@H](NC(=O)[C@H](CCCCN)NC(=O)[C@H](C)N)C(C)C)[C@@H](C)O)C(=O)N[C@H](C(=O)N[C@@H](CS)C(=O)N[C@@H](CO)C(=O)N[C@@H](C)C(=O)N[C@@H](CO)C(=O)O)[C@@H](C)O [AKVTMTCSAS]
[19]
  MIC: ≥ 100 µM
[20]
  MIC: ≥ 120 µM

## CC(C)C[C@H](NC(=O)[C@H](CCCCN)NC(=O)[C@H](Cc1cnc[nH]1)NC(=O)[C@H](CCCCN)NC(=O)[C@H](CC(C)C)NC(=O)[C@H](C)NC(=O)[C@H](CCCCN)NC(=O)[C@H](C)NC(=O)[C@H](CC(C)C)NC(=O)[C@H](C)NC(=O)[C@H](CCCN=C(N)N)NC(=O)[C@@H](N)CC(C)C)C(N)=O [LRALAKALKHKL]
[21]
  MIC: 29.4 µM (≈ 40 µg/mL)
[22]
  MIC: 29.4 µM (≈ 40 µg/mL)
[23]
  MIC: 7.34 µM (≈ 9.99 µg/mL)
[24]
  MIC: 3.67 µM (≈ 5 µg/mL)
Alternaria alternata
  MIC: ≥ 73.4 µM
Cladosporium herbarum
  MIC: 14.7 µM (≈ 20 µg/mL)
[25]
  MIC: 29.4 µM (≈ 40 µg/mL)
Botrytis cinerea
  MIC: ≥ 73.4 µM
[26]
  MIC: 29.4 µM (≈ 40 µg/mL)

## CC[C@H](C)[C@H](NC(=O)[C@@H]1CCCN1C(=O)[C@H](CCCCN)NC(=O)[C@@H]1CCCN1C(=O)[C@H](CCCN=C(N)N)NC(=O)CNC(=O)[C@@H]1CCCN1C(=O)[C@H](Cc1ccccc1)NC(=O)[C@@H]1CCCN1C(=O)[C@H](CCCN=C(N)N)NC(=O)[C@@H]1CCCN1C(=O)[C@H](CCCN=C(N)N)NC(=O)CNC(=O)[C@@H]1CCCN1C(=O)[C@H](CO)NC(=O)[C@@H]1CCCN1C(=O)[C@@H](N)Cc1c[nH]c2ccccc12)C(=O)N[C@@H](Cc1ccccc1)C(=O)N[C@@H](CCCN=C(N)N)C(=O)N1CCC[C@H]1C(=O)N[C@@H](CCCN=C(N)N)C(=O)O [WPSPGRPRPFPGRPKPIFRPR]
[27]
  MIC: 3.1 µM (≈ 7.75 µg/mL)
[28]
  MIC: ≥ 100 µM
[4]
  MIC: 100 µM (≈ 250 µg/mL)
[5]
  MIC: 35.4 µM (≈ 88.4 µg/mL)
Escherichia coli HB101
  MIC: 12.5 µM (≈ 31.2 µg/mL)
